This note sets out measurements from US11447498B2, “Fused tetracyclic compounds and uses thereof in medicine” (SUNSHINE LAKE PHARMA CO., LTD., priority 2018, dated 2022).

One test has as its system HBV DNA replication. In words: Inhibition experiment on HBV virus replication (HepG 2,2,15 cells, supernatant HBV DNA by qPCR). Conditions: Hepatitis B virus, HepG2.2.15, 10 days treatment, supernatant HBV DNA on day 11. In kind it is cell-based. The source says:
(§1) The chromosomal integration of HepG2,2,15 cells (SELLS, PNAS, 1987 and SELLS, JV, 1988) has a complete HBV genome and stably expresses viral RNA and viral proteins. HepG2,2,15 cells are capable of secreting mature hepatitis B virus particles and HBsAg into the culture medium. Virus particles DNA and HBsAg secreted by HepG 2,2,15 cells can be quantified by qPCR and ELISA, and the effects of compounds on viral replication and HBsAg secretion can be detected.
HepG 2,2,15 cells were inoculated with 8,000 per cell to 96-well cell culture plates in duplicate, and were cultured for 3 days until the cells grew to full-hole. Cells were treated with 4-fold serial dilutions of compounds for 10 days, and were given once every other day. The final concentration of DMSO in all pores was 0.5% and DMSO was used as a drug-free control. The supernatant was collected for quantitative detection of HBV DNA on day 11.
Viral genomic DNA was detected by qPCR method, and HBV primers were as follows: […]
The SYBR Premix Ex Taq D-Takara DRR081S kit was used, and 1 μL of cell culture supernatant was used as a template. A standard curve was made using a plasmid containing the HBV genome, and the viral copy number was calculated using the standard curve. Concentration-virus copy number was processed using Graphpad Prism 5 software, and IC50 of compounds inhibiting virus replication was calculated by four-parameter nonlinear regression model.
On the technique in general: In qPCR the cycle at which signal appears reflects the starting amount.

The next test concerns HBsAg secretion. In words: Inhibition experiment on HBsAg secretion (HepG 2,2,15 cells, ELISA). Format: cell-based. The settings on record: Hepatitis B virus, HepG2.2.15, read-out: HBsAg IC50.
Text: as §1
HepG 2,2,15 cells were inoculated with 8,000 per cell to 96-well cell culture plates in duplicate, and were cultured for 3 days until the cells grew to full-hole. Cells were treated with 4-fold serial dilutions of compounds for 10 days, and were given once every other day. The final concentration of DMSO in all pores was 0.5% and DMSO was used as a drug-free control. The supernatant was collected for quantitative detection of HBsAg on day 11.
The level of HBsAg secreted by the cells after treatment of the compound was detected by ELISA method, and the method used a hepatitis B surface antigen diagnostic kit (Shanghai Kehua Biotech Co., Ltd. S10910113). 25 μL of the supernatant to be assayed (PBS was diluted to 75 μL) was added to per well in the ELISA plate, and the kit positive control and negative control were set. The ELIS A plate was blocked with a cover paper and incubated at 37° C. for 60 minutes. The ELISA plate was taken out, and the cover paper was teared off, and 50 μL of enzyme conjugate was added to each well. The ELISA plate was oscillated on the shaker for 10 seconds, blocked with a cover paper and incubated at 37° C. for 30 minutes. The ELISA plate was taken out, the cover paper was teared off, and the ELISA plate was washed 5 times: each time the liquid in the hole was discarded, and the washing liquid was filled into the holes, left to stand for 60 seconds, dried, and the liquid residue was patted to dry on the absorbent paper. A freshly prepared mixture of Developer A and Developer B was added to all wells immediately after washing: 100 μL per well. The ELISA plate was oscillated on the shaker for 10 seconds, blocked with a cover paper and incubated at 37° C. for 30 minutes. 50 μL of stop solution was added to all wells. Absorbance was read on the Envision plate reader at a wavelength of 450 nm.
Concentration-HBsAg OD450 was processed using Graphpad Prism 5 software, and IC50 of compounds inhibiting against HBsAg secretion was calculated by four-parameter nonlinear regression model.
(ELISA stands for enzyme-linked immunosorbent assay.)

In the case of `CC(C)C1Cc2cc(-c3ccco3)c3c(c2-c2cc(=O)c(C(=O)O)cn21)CCO3` (stereo not drawn) [Example 1, 4-(Furan-2-yl)-7-isopropyl-11-oxo-2,6,7,11-tetrahydro-1H-furo[2,3-h]pyrido[2,1-a]isoquinoline-10-carboxylic Acid], the IC50 was 2.36 nM with HBV DNA replication and 4.21 nM in the test on HBsAg secretion.

Regarding `CC(C)[C@@H]1Cc2cc(OCCC3CC3)c3c(c2-c2cc(=O)c(C(=O)O)cn21)CCO3` [Example 3A, (S)-4-(2-Cyclopropylethoxy)-7-isopropyl-11-oxo-2,6,7,11-tetrahydro-1H-furo [2,3-h]pyrido[2,1-a]isoquinoline-10-carboxylic Acid], the IC50 with HBsAg secretion came out at 0.76 nM. Turning to `CC(C)C1Cc2cc(OCCOC3CC3)c3c(c2-c2cc(=O)c(C(=O)O)cn21)CCO3` (stereo not drawn) [Example 4, 4-(2-Cyclopropoxyethoxy)-7-isopropyl-11-oxo-2,6,7,11-tetrahydro-1H-furo [2,3-h]pyrido[2,1-a]isoquinoline-10-carboxylic Acid], the concentration for half-maximal inhibition (IC50) with HBV DNA replication was determined as 3.84 nM.

Consider `CC(C)C1Cc2cc(OCC3CCOCC3)c3c(c2-c2cc(=O)c(C(=O)O)cn21)CCO3` (stereo not drawn) [Example 5, 7-Isopropyl-11-oxo-4-((tetrahydro-2H-pyran-4-yl)methoxy)-2,6,7,11-tetrahydro-1H-furo[2,3-h]pyrido[2,1-a]isoquinoline-10-carboxylic Acid], for which the results for the IC50 in the test on HBV DNA replication and with HBsAg secretion were 3.4 nM and 2.35 nM, respectively. As to `CC(C)C1Cc2cc(OCCc3ccccc3)c3c(c2-c2cc(=O)c(C(=O)O)cn21)CCO3` (stereo not drawn) [Example 6, 7-Isopropyl-11-oxo-4-phenylethoxy-2,6,7,11-tetrahydro-1H-furo[2,3-h]pyrido [2,1-a]isoquinoline-10-carboxylic Acid], the IC50 was found to be 0.86 nM in the test with HBV DNA replication and 1.92 nM in the test with HBsAg secretion. On to `CC(C)C1Cc2cc(OCCC(F)(F)F)c3c(c2-c2cc(=O)c(C(=O)O)cn21)CCO3` (stereo not drawn) [Example 7, 7-Isopropyl-11-oxo-4-(3,3,3-trifluoropropoxy)-2,6,7,11-tetrahydro-1H-furo [2,3-h]pyrido[2,1-a]isoquinoline-10-carboxylic Acid], for which the IC50 in the test with HBV DNA replication came to 1.87 nM. For the molecule `CC(C)C1Cc2cc(-c3nccs3)c3c(c2-c2cc(=O)c(C(=O)O)cn21)CCO3` (stereo not drawn) [Example 8, 7-isopropyl-11-oxo-4-(thiazol-2-yl)-2,6,7,11-tetrahydro-1H-furo[2,3-h]pyrido [2,1-a]isoquinoline-10-carboxylic Acid], the results for the IC50 in the test with HBV DNA replication and in the test with HBsAg secretion were 0.52 nM and 1.63 nM, respectively. For `CC(C)C1Cc2cc(-c3cnn(C(F)F)c3)c3c(c2-c2cc(=O)c(C(=O)O)cn21)CCO3` (stereo not drawn) [Example 10, 4-(l (Difluoromethyl)-1H-pyrazol-4-yl)-7-isopropyl-11-oxo-2,6,7,11-tetrahydro-1H-furo[2,3-h]pyrido[2,1-a]isoquinoline-10-carboxylic Acid], the values for the IC50 with HBV DNA replication and in the test on HBsAg secretion were 0.98 nM and 2.34 nM, respectively. In the case of `CC(C)[C@@H]1Cc2cc(-c3cnn(C(F)F)c3)c3c(c2-c2cc(=O)c(C(=O)O)cn21)CCO3` [Example 10A, 4-(1-(Difluoromethyl)-1H-pyrazol-4-yl)-7-isopropyl-11-oxo-2,6,7,11-tetrahydro-1H-furo[2,3-h]pyrido[2,1-a]isoquinoline-10-carboxylic Acid], in the test with HBsAg secretion, the half-maximal inhibitory concentration (IC50) stood at 0.54 nM.

On to `CC(C)C1Cc2cc(-c3cccs3)c3c(c2-c2cc(=O)c(C(=O)O)cn21)CCO3` (stereo not drawn) [Example 11, 7-Isopropyl-11-oxo-4-(thiophen-2-yl)-2,6,7,11-tetrahydro-1H-furo[2,3-h]pyrido[2,1-a]isoquinoline-10-carboxylic Acid], for which the IC50 in the test on HBV DNA replication was 0.78 nM; in the test on HBsAg secretion it was 0.92 nM. For `COCCCOc1cc2c(c3c1OCC3)-c1cc(=O)c(C(=O)O)cn1N1C2CCC1(C)C` (stereo not drawn) [Example 12, 5-(3-Methoxypropoxy)-1,1-dimethyl-10-oxo-2,3,3a,7,8,10-hexahydro-1H-furo [3,2-f]pyrido[1,2-c]pyrrolo[2,1-a]phthalazine-11-carboxylic Acid] the same measures were below 0.24 nM and 0.81 nM.

As to `CC(C)n1cc(-c2cc3c(c4c2OCC4)-c2cc(=O)c(C(=O)O)cn2N2C3CCC2(C)C)cn1` (stereo not drawn) [Example 14, 5-(1-Isopropyl-1H-pyrazol-4-yl)-1,1-dimethyl-10-oxo-2,3,3a,7,8,10-hexahydro-1H-furo[3,2-f]pyrido[1,2-c]pyrrolo[2,1-a]phthalazine-11-carboxylic Acid], the values for the IC50 with HBV DNA replication and in the test with HBsAg secretion were below 0.24 nM and 0.38 nM, respectively. Turning to `COCCCOc1cc2c(c3c1OCC3)-c1cc(=O)c(C(=O)O)cn1N(C(C)C)C2` [Example 16, 7-Isopropyl-4-(3-methoxypropoxy)-11-oxo-2,6,7,11-tetrahydro-1H-furo[2,3-h]pyrido[2,1-a]phthalazine-10-carboxylic Acid], in the test with HBV DNA replication, the concentration for half-maximal inhibition (IC50) came to 2.49 nM.

For the molecule `CC(C)CCOc1cc2c(c3c1OCC3)-c1cc(=O)c(C(=O)O)cn1C(C(C)C)C2` (stereo not drawn) [Example 21, 4-(Isopentyloxy)-7-isopropyl-11-oxo-2,6,7,11-tetrahydro-1H-furo[2,3-h]pyrido [2,1-a]isoquinoline-10-carboxylic Acid], the IC50 in the test with HBsAg secretion was 1.55 nM.

Turning to `CC(C)C1Cc2cc(OCC3CCCC3)c3c(c2-c2cc(=O)c(C(=O)O)cn21)CCO3` (stereo not drawn) [Example 22, 4-(Cyclopentylmethoxy)-7-isopropyl-11-oxo-2,6,7,11-tetrahydro-1H-furo[2,3-h]pyrido[2,1-a]isoquinoline-10-carboxylic Acid], the IC50 in the test on HBV DNA replication stood at 2.26 nM. As to `CC(C)C1Cc2cc(OCC3CC3)c3c(c2-c2cc(=O)c(C(=O)O)cn21)CCO3` (stereo not drawn) [Example 23, 4-(Cyclopropylmethoxy)-7-isopropyl-11-oxo-2,6,7,11-tetrahydro-11-furo [2,3-h]pyrido[2,1-a]isoquinoline-10-carboxylic Acid], the concentration for half-maximal inhibition (IC50) was 3.36 nM in the test with HBV DNA replication and 1.14 nM in the test with HBsAg secretion.

With `CC(C)C1Cc2cc(-c3ccc(-c4ccccc4)cc3)c3c(c2-c2cc(=O)c(C(=O)O)cn21)CCO3` (stereo not drawn) [Example 25, 4-([1,1′-Biphenyl]-4-yl)-7-isopropyl-11-oxo-2,6,7,11-tetrahydro-1H-furo[2,3-h]pyrido[2,1-a]isoquinoline-10-carboxylic Acid], the IC50 in the test with HBV DNA replication turned out to be 0.72 nM; in the test with HBsAg secretion, 1.4 nM. On to `COc1ccc(-c2cc3c(c4c2OCC4)-c2cc(=O)c(C(=O)O)cn2C(C(C)C)C3)cc1` (stereo not drawn) [Example 26, 7-Isopropyl-4-(4-methoxyphenyl)-11-oxo-2,6,7,11-tetrahydro-1H-furo[2,3-h]pyrido[2,1-a]isoquinoline-10-carboxylic Acid], for which the IC50 in the test with HBV DNA replication was 1.09 nM; in the test on HBsAg secretion, 1.33 nM. For the molecule `COc1cccc(-c2cc3c(c4c2OCC4)-c2cc(=O)c(C(=O)O)cn2C(C(C)C)C3)c1` (stereo not drawn) [Example 27, 7-Isopropyl-4-(3-methoxyphenyl)-11-oxo-2,6,7,11-tetrahydro-1H-furo[2,3-h]pyrido[2,1-a]isoquinoline-10-carboxylic Acid], the IC50 was found to be 2.54 nM with HBV DNA replication and 4.65 nM in the test with HBsAg secretion. For `CC(C)C1Cc2cc(-c3ccncc3)c3c(c2-c2cc(=O)c(C(=O)O)cn21)CCO3` (stereo not drawn) [Example 29, 7-Isopropyl-11-oxo-4-(pyridine-4-yl)-2,6,7,11-tetrahydro-1H-furo[2,3-h]pyrido [2,1-a]isoquinoline-10-carboxylic Acid] the same measures were 0.97 nM and 2.64 nM. `CC(C)C1Cc2cc(-c3cncnc3)c3c(c2-c2cc(=O)c(C(=O)O)cn21)CCO3` (stereo not drawn) [Example 30, 7-Isopropyl-11-oxo-4-(pyrimidin-5-yl)-2,6,7,11-tetrahydro-1H-furo[2,3-h]pyrido[2,1-a]isoquinoline-10-carboxylic Acid]: the IC50 in the test with HBV DNA replication came out at 1.95 nM; in the test with HBsAg secretion it was 5.3 nM. Consider `O=C(O)c1cn2c(cc1=O)-c1c(cc(OCCC3CC3)c3c1CCO3)CN2c1nccs1` [Example 47, 4-(2-Cyclopropylethoxy)-11-oxo-7-(thiazol-2-yl)-2,6,7,11-tetrahydro-1H-furo [2,3-h]pyrido[2,1-a]phthalazine-10-carboxylic Acid], for which 3.31 nM corresponded to half-maximal inhibition in the test with HBV DNA replication (IC50).

Broadly, the IC50 is the concentration at which inhibition is half-maximal.
